Measurements taken from ChEMBL document CHEMBL3045533, “Synthesis and cytotoxicity of 1-phenylethanolamine carboxamide derivatives: effects on the cell cycle” (Med Chem Res, 2010).
≈ marks a conversion by molar mass, not a printed value. Calls of active or inactive are those of the source. The calls are words filed in the database; no cut-off is given here.

Experiments:
L1210 [1] = experiment: Cytotoxicity against Mus musculus (mouse) L1210 cells after 72 hr by MTT assay; type: functional, cell-based; settings: L1210, 72 h
B16 = experiment: Cytotoxicity against Mus musculus (mouse) B16 cells after 72 hr by MTT assay; type: functional, cell-based; settings: B16, 72 h
L1210 [2] = experiment: Induction of apoptosis in Mus musculus (mouse) L1210 cells assessed as apoptotic cells at 500 uM after 3 hr by PI/annexin V-staining based flow cytometric analysis (reference value: 30%); type: functional
L1210 [3] = experiment: Induction of apoptosis in Mus musculus (mouse) L1210 cells assessed as cell death at 500 uM after 3 hr by PI/annexin V-staining based flow cytometric analysis (reference value: 5.3%); type: functional
L1210 [4] = experiment: Induction of apoptosis in Mus musculus (mouse) L1210 cells assessed as viable cells at 500 uM after 3 hr by PI/annexin V-staining based flow cytometric analysis (reference value: 32%); type: functional; settings: L1210, 3 h, read-out: Activity
L1210 [5] = experiment: Induction of apoptosis in Mus musculus (mouse) L1210 cells at 500 uM after 3 hr by PI-staining based flow cytometric analysis; type: functional, cell-based
U-937 = experiment: Cytotoxicity against Homo sapiens (human) U937 cells; type: functional, cell-based

COc1ccc(/C=C/C(=O)NCC(O)c2ccc(N)cc2)cc1 (centres undefined)
IC50 (L1210 [1]): > 100 µM | IC50 (B16): 93 µM

COc1ccc2[nH]c(C(=O)NCC(O)c3ccccc3)cc2c1 (centres undefined)
IC50 (L1210 [1]): 25 µM | IC50 (B16): 84 µM

COc1ccc2[nH]c(C(=O)NCC(O)c3ccc(N)cc3)cc2c1 (centres undefined)
Activity (L1210 [2]): 41% | Activity (L1210 [3]): 7% | viability at 500 µM (L1210 [4]): 48% | Activity (L1210 [5]): Active | IC50 (L1210 [1]): 50 µM | IC50 (B16): 87 µM

COc1ccc(/C=C/C(=O)NCC(O)c2ccccc2)cc1 (centres undefined)
IC50 (L1210 [1]): > 100 µM | IC50 (B16): > 100 µM

COc1cccc(/C=C/C(=O)NCC(O)c2ccccc2)c1 (centres undefined)
IC50 (L1210 [1]): 64 µM | IC50 (B16): > 100 µM

O=C(/C=C/c1ccc([N+](=O)[O-])cc1)NCC(O)c1ccccc1 (centres undefined)
IC50 (L1210 [1]): > 100 µM | IC50 (B16): > 100 µM

COc1cc(/C=C/C(=O)NC[C@@H](O)c2ccc(O)cc2)ccc1O
IC50 (U-937): 44 µg/mL (≈ 134 µM)

Nc1ccc(C(O)CNC(=O)/C=C/c2ccc([N+](=O)[O-])cc2)cc1 (centres undefined)
IC50 (L1210 [1]): 64 µM | IC50 (B16): 53 µM
